Measurements taken from US8471027B2, “Adamantyl compounds” (Hoffmann-La Roche Inc., priority 2011, dated 2013).

Columns and labels:
JNK1 = JNK1 (Homo sapiens, UniProt P45983); assay: In vitro JNK1 Assay (TR-FRET, phosphorylation of GST-c-Jun); type: biochemical; settings: 0.2 nM JNK1, 26.7 nM GST-c-Jun, 2 μM ATP
Description: Phosphorylation of GST-c-Jun protein (amino acid residues 1-79) was measured as JNK1 activity. […] The reaction buffer contained 50 mM HEPES, pH 7.0, 10 mM MgCl2, 1 mM DTT, 0.1 mM Na3 VO4 and 0.2 mg/mL BSA. After 30 min. incubation at room temperature, the reaction was terminated by adding buffer containing 8 mM EDTA and a polyclonal anti-phospho-c-Jun antibody (Cell Signaling #9261L), followed by an additional incubation of 30 min. at room temperature. […] Time-resolved Fluorescence Resonance Energy Transfer (TR-FRET) signals were measured 1 hr. later on the EnVision reader (Perkin Elmer). Compound potency was assessed at 10 serially diluted concentrations. Percentage of inhibition at each concentration was determined to generate an IC50 value for each compound.

[1] = tested on: phospho(Ser63)-c-jun in HK-2 cells; assay: Cell-based assay for JNK inhibitors: in-cell ELISA of TNFα-stimulated phospho(Ser63)-c-jun in HK-2 cells; settings: Homo sapiens, 10 ng/mL TNFα, 60 min preincubation with compound
Description: Cell-Based Assay for JNK Inhibitors
The cell-based assay employed the in-cell ELISA method to determine the ability of compounds to prevent the generation of phospho(Ser63)-c-jun in HK-2 cells (human proximal tubule cells) in response to stimulation with tumor necrosis factor α (TNFα). In brief, for quantification of phospho(Ser63)-c-jun, the cells (in 96-well format) were fixed and permeablized then incubated sequentially with a rabbit anti-phospho-c-jun First Antibody specific for the presence of the phospho-Ser63 epitope and a donkey anti-rabbit IgG Second Antibody linked to horseradish peroxidase (HRP) for colorimetric quantitation of binding. For determination of non-specific binding of the First Antibody, Blank wells were preincubated with a mouse anti-phospho(Ser63)-c-jun Blocking Antibody that prevented specific binding of the First Antibody to the phospho-Ser63 epitope, but which was not recognized by the donkey anti-rabbit IgG Second Antibody. […] Blank wells received no TNFα stimulation or compound. Additional Control wells received TNFα stimulation, but no compound. The signal obtained in this case was considered the value for 0% inhibition (Control value).
Stock cultures of HK-2 cells (ATCC, Manassas, Va.) were grown under a 5% CO2/[…] atmosphere at 37 degrees C. in Keratinocyte-SFM medium (KSFM, Invitrogen, Grand Island, N.Y.) containing 5 μg/L epidermal growth factor and 5 mg/L bovine pituitary extract (both supplied with the medium), additionally supplemented with 10% (v/v) fetal calf serum (FCS; Invitrogen, Grand Island, N.Y.) and 1% (v/v) antibiotic-antimycotic (ABAM: Sigma, St. Louis, Mo.). For assays, cells were seeded in collagen coated 96-well polystyrene plates (BD Biosciences, Franklin Lakes, N.J.) at a density of 40,000 cells/well and cultured for 24 h in the same medium (100 μL/well) followed by a further 16-24 h in 100 μL of similar medium, but without FCS. […] Cells were incubated for a further 30 minutes and then the medium was aspirated and the wells washed with 100 μL/well PBS followed by the addition of 100 μL 3.7% (v/v) Formaldehyde (Fisher Scientific, Fair Lawn, N.J.) in PBS. Plates were then allowed to stand at room temperature for 20 minutes before being washed with 200 μL/well of PBS. (Further steps were performed immediately or the plates were stored at 4 degrees C. and the assay completed the next day.) To each well was added 100 μL 1% (v/v) TritonX-100 (Sigma, St. Louis, Mo.) in PBS followed by 20 minutes standing at room temperature, washing with 200 μL/well PBS, the addition of 100 μL/well of Quenching buffer (1% (v/v) hydrogen peroxide (Sigma, St. Louis, Mo.) and 0.1% (w/v) sodium azide (Fisher Scientific, Fair Lawn, N.J.)) in PBS and a further 20 minutes at room temperature. Plates were then washed twice with 200 μL/well of 0.1% (v/v) Tween-20 (Teknova, Hollister, Calif.) in PBS before addition of 200 μL/well of 2% BSA/0.10% Tween-20 in PBS and a further 1 hour at room temperature. At this time, buffer was removed from Blank wells and replaced with 90 μL/well of mouse anti-phospho-c-jun-Ser63 (BD Bioscience, 558036) diluted 1:4000 in PBS containing 1% BSA/0.1% Tween-20 (Antibody Dilution Buffer). All other wells are replaced with 90 μL/well of rabbit anti-phospho-c-jun-Ser63 (Cell Signaling, 9261) diluted 1:250 in Antibody Dilution Buffer. After a further one hour, rabbit anti-phospho-c-jun-Ser63 is added directly to the solution in the Blank wells resulting in 1:250 dilution of this antibody. Plates were then placed on a slowly rotating platform at 4 degrees C. overnight. Wells were then washed thrice with 200 μL/well PBS/0.1% Tween-20. After addition of the third wash, the plates were placed on a slowly rotating platform for 15 minutes at room temperature. […]

JNK1, sequence (P45983 whole entry, species assumed, the tested form may be a part): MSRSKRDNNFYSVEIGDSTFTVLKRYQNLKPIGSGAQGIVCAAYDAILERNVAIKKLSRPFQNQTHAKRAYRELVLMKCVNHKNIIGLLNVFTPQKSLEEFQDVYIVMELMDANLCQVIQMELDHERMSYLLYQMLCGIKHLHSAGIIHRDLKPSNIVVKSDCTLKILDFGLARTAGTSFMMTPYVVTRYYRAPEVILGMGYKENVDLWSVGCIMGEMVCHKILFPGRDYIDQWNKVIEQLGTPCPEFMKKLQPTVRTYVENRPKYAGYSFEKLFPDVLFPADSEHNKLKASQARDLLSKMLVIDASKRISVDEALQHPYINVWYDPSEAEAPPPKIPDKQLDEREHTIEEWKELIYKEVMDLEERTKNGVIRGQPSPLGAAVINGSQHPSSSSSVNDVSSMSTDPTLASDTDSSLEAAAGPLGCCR

| SMILES | IC50 (JNK1) | EC50 [1] |
| --- | --- | --- |
| COC(=O)c1c(Cc2ccc(C(=O)N[C@@H]3[C@@H]4C[C@@H]5C[C@H]3C[C@@](OC(C)=O)(C5)C4)cc2)c(=O)c2ccc(Cl)cc2n1-c1ccccc1 [Compound I-6, rel-3-[4-((1S,2S,3R,5S,7S)-5-Acetoxy-adamantan-2-ylcarbamoyl)-benzyl]-7-chloro-4-oxo-1-phenyl-1,4-dihydro-quinoline-2-carboxylic acid methyl ester] | 110 nM | 4400 nM |
| COC(=O)c1c(Cc2ccc(C(=O)N[C@@H]3[C@@H]4C[C@@H]5C[C@H]3C[C@@](O)(C5)C4)cc2)c(=O)c2ccc(C(F)(F)F)nc2n1-c1ccccc1 [Compound I-25, rel-3-[4-((1S,2S,3R,5S,7S)-5-Hydroxy-adamantan-2-ylcarbamoyl)-benzyl]-4-oxo-1-phenyl-7-trifluoromethyl-1,4-dihydro-[1,8]naphthyridine-2-carboxylic acid methyl ester] | 77 nM | 3600 nM |
| COC(=O)c1c(Cc2ccc(C(=O)N[C@@H]3[C@@H]4C[C@@H]5C[C@H]3C[C@@](NC(=O)C(C)(C)OC(C)=O)(C5)C4)cc2)c(=O)c2ccc(Cl)cc2n1-c1ccccc1 [Compound I-12, rel-3-{4-[(1S,2S,3R,5S,7S)-5-(2-Acetoxy-2-methyl-propionylamino)-adamantan-2-ylcarbamoyl]-benzyl}-7-chloro-4-oxo-1-phenyl-1,4-dihydro-quinoline-2-carboxylic acid methyl ester] | 17 nM | 3300 nM |
| COC(=O)c1c(Cc2ccc(C(=O)N[C@H]3[C@@H]4C[C@@H]5C[C@H]3C[C@@](O)(C5)C4)cc2)c(=O)c2ccc(Cl)cc2n1-c1ccccc1 [Compound I-4, rel-7-Chloro-3-[4-((1S,2R,3R,5S,7S)-5-hydroxy-adamantan-2-ylcarbamoyl)-benzyl]-4-oxo-1-phenyl-1,4-dihydro-quinoline-2-carboxylic acid methyl ester] | 51 nM | 6300 nM |
| COC(=O)c1c(Cc2ccc(C(=O)N[C@H]3[C@@H]4C[C@@H]5C[C@H]3C[C@@](N)(C5)C4)cc2)c(=O)c2cccnc2n1-c1ccccc1 [Compound I-8, rel-3-[4-((1S,2R,3R,5S,7S)-5-amino-adamantan-2-ylcarbamoyl)-benzyl]-4-oxo-1-phenyl-1,4-dihydro-[1,8]naphthyridine-2-carboxylic acid methyl ester] |  | 44000 nM |
| O=C(N[C@@H]1[C@@H]2C[C@@H]3C[C@H]1C[C@@](O)(C3)C2)c1ccc(Cc2cn(-c3ccccn3)c3cc(Cl)ccc3c2=O)cc1 [Compound I-5, rel-4-(7-Chloro-4-oxo-1-pyridin-2-yl-1,4-dihydro-quinolin-3-ylmethyl)-N-((1S,2S,3R,5S,7S)-5-hydroxy-adamantan-2-yl)-benzamide] | 330 nM |  |

Further molecules by falling IC50 (JNK1), results first:

| IC50 (JNK1) | EC50 [1] | SMILES |
| --- | --- | --- |
| 47 nM | 8500 nM | COC(=O)c1c(Cc2ccc(C(=O)N[C@H]3[C@@H]4C[C@@H]5C[C@H]3C[C@@](O)(C5)C4)cc2)c(=O)c2cccnc2n1-c1ccccc1 [Compound I-2, rel-3-[4-((1S,2R,3R,5S,7S)-5-Hydroxy-adamantan-2-ylcarbamoyl)-benzyl]-4-oxo-1-phenyl-1,4-dihydro-[1,8]naphthyridine-2-carboxylic acid methyl ester] |
| 27 nM | 7800 nM | COC(=O)c1c(Cc2ccc(C(=O)N[C@@H]3[C@@H]4C[C@@H]5C[C@H]3C[C@@](O)(C5)C4)cc2OC)c(=O)c2cccnc2n1-c1ccccc1 [Compound I-23, rel-3-[4-((1S,2S,3R,5S,7S)-5-Hydroxy-adamantan-2-ylcarbamoyl)-2-methoxy-benzyl]-4-oxo-1-phenyl-1,4-dihydro-[1,8]naphthyridine-2-carboxylic acid methyl ester] |
| 26 nM | 3100 nM | COC(=O)c1c(Cc2ccc(C(=O)N[C@@H]3[C@@H]4C[C@@H]5C[C@H]3C[C@@](NS(=O)(=O)C3CC3)(C5)C4)cc2)c(=O)c2ccc(Cl)cc2n1-c1ccccc1 [Compound I-14, rel-7-Chloro-3-[4-((1S,2S,3R,5S,7S)-5-cyclopropanesulfonylamino-adamantan-2-ylcarbamoyl)-benzyl]-4-oxo-1-phenyl-1,4-dihydro-quinoline-2-carboxylic acid methyl ester] |
| 26 nM | 3100 nM | COC(=O)c1c(Cc2ccc(C(=O)N[C@@H]3[C@@H]4C[C@@H]5C[C@H]3C[C@@](NC(C)=O)(C5)C4)cc2)c(=O)c2cccnc2n1-c1ccccc1 [Compound I-17, rel-3-[4-((1S,2S,3R,5S,7S)-5-Acetylamino-adamantan-2-ylcarbamoyl)-benzyl]-4-oxo-1-phenyl-1,4-dihydro-[1,8]naphthyridine-2-carboxylic acid methyl ester] |
| 22 nM | 4100 nM | COC(=O)c1c(Cc2ccc(C(=O)N[C@@H]3[C@@H]4C[C@@H]5C[C@H]3C[C@@](NC(=O)C(C)(C)O)(C5)C4)cc2)c(=O)c2cccnc2n1-c1ccccc1 [Compound I-22, rel-3-{4-[(1S,2S,3R,5S,7S)-5-(2-Hydroxy-2-methyl-propionylamino)-adamantan-2-ylcarbamoyl]-benzyl}-4-oxo-1-phenyl-1,4-dihydro-[1,8]naphthyridine-2-carboxylic acid methyl ester] |
| 11 nM | 2100 nM | COC(=O)c1c(Cc2ccc(C(=O)N[C@@H]3[C@@H]4C[C@@H]5C[C@H]3C[C@@](NS(C)(=O)=O)(C5)C4)cc2)c(=O)c2cccnc2n1-c1ccccc1 [Compound I-19, rel-3-[4-((1S,2S,3R,5S,7S)-5-Methanesulfonylamino-adamantan-2-ylcarbamoyl)-benzyl]-4-oxo-1-phenyl-1,4-dihydro-[1,8]naphthyridine-2-carboxylic acid methyl ester] |
| 10 nM | 1900 nM | COC(=O)c1c(Cc2ccc(C(=O)N[C@@H]3[C@@H]4C[C@@H]5C[C@H]3C[C@@](NCC(C)(C)O)(C5)C4)cc2)c(=O)c2ccc(Cl)cc2n1-c1ccccc1 [Compound I-16, rel-7-Chloro-3-{4-[(1S,2S,3R,5S,7S)-5-(2-hydroxy-2-methyl-propylamino)-adamantan-2-ylcarbamoyl]-benzyl}-4-oxo-1-phenyl-1,4-dihydro-quinoline-2-carboxylic acid methyl ester] |
| 5 nM | 1800 nM | COC(=O)c1c(Cc2ccc(C(=O)N[C@@H]3[C@@H]4C[C@@H]5C[C@H]3C[C@@](NS(=O)(=O)C3CC3)(C5)C4)cc2)c(=O)c2cccnc2n1-c1ccccc1 [Compound I-18, rel-3-[4-((1S,2S,3R,5S,7S)-5-Cyclopropanesulfonylamino-adamantan-2-ylcarbamoyl)-benzyl]-4-oxo-1-phenyl-1,4-dihydro-[1,8]naphthyridine-2-carboxylic acid methyl ester] |
